This is an account of results in patent publication US20090062351A1, “Benzoyl amino pyridyl carboxylic acid derivatives useful as glucokinase (glk) activators” (priority 2003, published 2009).

The nature of data set [1]: Plasma protein binding by equilibrium dialysis. Format: in vitro ADME. The conditions noted are these: rat, 37° C., pH 7.4, read-out: % free in plasma. The protocol: The plasma protein binding of compounds was measured using the equilibrium dialysis technique (W. Lindner et al, J. Chromatography, 1996, 677, 1-28). Compound was dialysed at a concentration of 20 μM for 18 hours at 37° C. with plasma and isotonic phosphate buffer pH 7.4 (1 ml of each in the dialysis cell). A Spectrum® 20-cell equilibrium dialyser was used together with Teflon, semi-micro dialysis cells and Spectra/Por®2 membrane discs with a molecular weight cut off 12-14000 Dalton, 47 mm (supplied by PerBio Science UK Ltd, Tattenhall, Cheshire). Plasma and buffer samples are removed following dialysis and analysed using HPLCUV/MS (high performance liquid chromatography with UV and mass spec detection) to give the % free level in plasma.

Data set [2] in a line: Plasma levels following oral administration to rats. Format: in vivo. The following applies: rat, including both bound and free, normalised dose of 1 mg compound per kilogram body weight. The protocol:
Planetary Milled compounds [15 mins, 500 rpm, 5 Zirconium Balls, in a Puluerisette 7 Mill (Glen Creston Ltd, Stanmore, Middlesex, UK)] were suspended in 0.5% HPMC Tween and dosed to High Fat Fed (Research Diets, D12451, ad lib feeding 14 days) Female Alderley Park Zucker or Alderley Park Wistar rats at rate of 5 mls/kg, at doses between 0.3 and 10 mg/kg by oral gavage.
Samples of plasma were obtained either by conscious blood sampling or terminal blood sampling as follows:
Conscious blood sampling (for compound level or blood chemistry)—Intravenous blood samples were taken from tail vein using 600 μl Starstedt Multivette (EDTA) and 22 G needle at the required time point. […]
The reconstituted samples were then analysed using high performance liquid chromatography with tandem mass spectrometry detection (HPLC-MS-MS)”. […]
The concentration of test samples was determined from the ratio of the peak height of the test sample to the peak height of the internal standard. The concentration of the test sample was calculated with reference to a standard curve relating the ratio to the concentration prepared by using known concentrations of test sample added to samples of rat plasma using (3-isopropoxy-5-benzyoxy-benzoyl)amino pyridine 3-carboxylic acid as an internal standard, treated as described above.

In another data set the target is T1, glucokinase (GLK) (Homo sapiens, UniProt P35557).
T1 sequence (P35557 1-466 isoform P35557-2): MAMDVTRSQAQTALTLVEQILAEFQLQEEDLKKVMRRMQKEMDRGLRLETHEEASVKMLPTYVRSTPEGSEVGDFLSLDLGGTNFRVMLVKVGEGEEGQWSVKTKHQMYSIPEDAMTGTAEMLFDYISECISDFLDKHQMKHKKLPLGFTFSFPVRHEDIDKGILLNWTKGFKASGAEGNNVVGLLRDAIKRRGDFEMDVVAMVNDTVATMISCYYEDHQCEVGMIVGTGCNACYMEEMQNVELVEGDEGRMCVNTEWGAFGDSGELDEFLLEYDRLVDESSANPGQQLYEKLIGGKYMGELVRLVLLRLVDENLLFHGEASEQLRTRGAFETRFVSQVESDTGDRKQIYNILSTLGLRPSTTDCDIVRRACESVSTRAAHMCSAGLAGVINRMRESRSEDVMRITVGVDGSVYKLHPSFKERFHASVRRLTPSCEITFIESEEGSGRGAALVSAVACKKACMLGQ
The data set can be described thus: biochemical.

As usually defined, the EC50 is the concentration that produces a half-maximal response. A lower EC50 goes with an effect from little substance. As to `COC[C@H](C)Oc1cc(OCC=C2CCCC2)cc(C(=O)Nc2ccc(C(=O)O)cn2)c1` [Example 2, 6-{[(3-[(2-cyclopentylideneethyl)oxy]-5-{[(1S)-1-methyl-2-(methyloxy)ethyl]oxy}phenyl)carbonyl]amino}pyridine-3-carboxylic acid], the fraction unbound at 18 h, 20 μM in data set [1] came out at 0.0042. In addition, the “Peak Blood levels” value in data set [2] stood at 2.2 µM. The midpoint of the response at glucokinase (GLK), the EC50, lay at 78 nM.
